Bridge positions count the residues as written; N and C are the ends. Peptide text beside a SMILES is read from it.
Key:
[1] = biological target: T1, CALCRL:RAMP3 (adrenomedullin 2 (AM2) receptor) (Homo sapiens, UniProt O60896+Q16602); test: CALCRL:RAMP3 CRE-bla Freestyle 293F agonist screen (adrenomedullin 2 receptor); format: cell-based; conditions: CALCRL:RAMP3-CRE-bla Freestyle 293F cells, 5 hours incubation, FIG. 2
T1 construct: host or cells: Freestyle 293F (CRE-bla reporter line)
Experimental: Cell-based GPCR Profiling Assays. A representative CGRP agonist peptide according to the present invention, ACX017 (SEQ ID NO:1), was profiled against G-Protein Coupled Receptors (GPCRs) in cell-based assays to determine its agonist activity and dose response. Assays were performed using the SelectScreen® Cell-based GPCR Profiling Services by Life Technologies, Carlsbad, Calif.
CALCRL:RAMP3—CRE-bla Freestyle 293F—Agonist Screen (Adrenomedullin 2 Receptor)
CALCRL:RAMP3-CRE-bla Freestyle 293F cells were thawed and resuspended in Assay Media (DMEM, 10% dialyzed FBS, 25 mM HEPES pH 7.3, 0.1 mM NEAA, 100 U/mL/100 μg/mL Pen/Strep) to a concentration of 312,500 cells/mL. 32 μL of cell suspension (10,000 cells) was added to each well of a 384-well Poly-D-Lysine assay plate. Cells in Assay Media were incubated for 16-24 hours in the plate at 37° C./5% CO2 in a humidified incubator. 4 μL of a 10× serial dilution of Adrenomedullin or ACX017 were added to appropriate wells of the plate. […] The plate was read on a fluorescence plate reader. […]
Cell-free Control. […] It was used to determine the background fluorescence for both coumarin and fluorescein wavelengths. […]
Known Agonist. A known agonist titration was run on every plate for each cell-line to ensure the cell line was activated within an expected EC50/IC50 range as previously determined.

[2] = tested on: Sprague Dawley rats, food intake; test: Four-day food intake study; format: in vivo, rat; conditions: male Sprague Dawley rats on 60% kcal fat diet, 150 μg/kg intraperitoneal once daily for four days, food intake at 2, 4, 6, 8 hours post dose
Experimental: Food Intake Study. The effect of a CGRP agonist, in accordance with the present invention, on food intake over time both within and across several days of treatment was evaluated. Study was performed by Explora BioLabs, San Diego, Calif. and animals treated in accordance with its IACUC standards.
On Day 0, 12 animals were randomized into two groups, Test and Control, to obtain similar body weight averages between groups. Animals were dosed via a single intraperitoneal injection, with either ACX017 (SEQ. ID NO:1) (Test group) or vehicle (Control group) each day, for four days. On each day, dosing was performed in the hour prior to the end of the light phase. ACX017 was dosed at 150 μg/kg in a 10% DMSO aqueous solution. Both ACX017 and vehicle were delivered as 1 mL/kg doses.
Food consumption was measured pre-dose and at 2, 4, 6 and 8 hours post dose. Food intake was measured by weighing food hoppers on Days 1, 2, 3 and four in the hour before end of the light phase and at 2, 4, 6 and 8 hours post dosing.
Average food intake for each of the Test and Control groups at each time point post dosing was determined. Cumulative food intake for each group over the entire test period (8 hours) is provided in graph form in FIGS. 1-4 for each of Days 1-4, respectively.

T1 sequence (Q16602 23-461): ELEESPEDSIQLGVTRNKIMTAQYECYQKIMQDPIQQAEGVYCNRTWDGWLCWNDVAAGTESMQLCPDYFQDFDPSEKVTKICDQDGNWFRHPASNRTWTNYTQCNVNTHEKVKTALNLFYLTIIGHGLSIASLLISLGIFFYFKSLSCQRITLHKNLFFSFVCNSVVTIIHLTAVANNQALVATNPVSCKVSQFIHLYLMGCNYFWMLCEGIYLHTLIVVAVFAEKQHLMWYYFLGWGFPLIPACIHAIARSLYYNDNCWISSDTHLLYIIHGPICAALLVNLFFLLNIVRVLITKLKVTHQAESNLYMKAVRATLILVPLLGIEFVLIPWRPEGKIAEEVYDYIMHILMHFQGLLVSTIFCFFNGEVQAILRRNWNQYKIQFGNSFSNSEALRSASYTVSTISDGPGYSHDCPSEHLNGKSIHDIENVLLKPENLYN
T1 sequence (O60896 24-148): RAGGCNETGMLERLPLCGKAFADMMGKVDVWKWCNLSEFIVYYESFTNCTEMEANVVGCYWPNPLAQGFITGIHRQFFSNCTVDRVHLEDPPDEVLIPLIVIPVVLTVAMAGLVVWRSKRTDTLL

## CC(C)C[C@H](NC(=O)[C@H](CCCNC(=N)N)NC(=O)CNC(=O)[C@H](CC(C)C)NC(=O)[C@@H](NC(=O)[C@@H]1CSSC[C@H](NC(=O)[C@H](C)N)C(=O)N[C@@H](CC(=O)O)C(=O)N[C@@H]([C@@H](C)O)C(=O)N[C@@H](C)C(=O)N[C@@H]([C@@H](C)O)C(=O)N1)C(C)C)C(=O)N[C@@H](CO)C(=O)N[C@@H](CCC(N)=O)C(=O)N[C@@H](CCC(=O)O)C(=O)N[C@@H](CC(C)C)C(=O)N[C@@H](Cc1c[nH]cn1)C(=O)N[C@@H](CCCNC(=N)N)C(=O)N[C@@H](CC(C)C)C(=O)N[C@@H](CCC(N)=O)C(=O)N[C@H](C(=O)N[C@@H](Cc1ccc(O)cc1)C(=O)N1CCC[C@H]1C(=O)N[C@@H](CCCNC(=N)N)C(=O)N[C@H](C(=O)N[C@@H](CC(N)=O)C(=O)N[C@H](C(=O)NCC(=O)N[C@@H](CO)C(=O)N[C@@H](CCCCN)C(=O)N[C@@H](C)C(=O)N[C@@H](Cc1ccccc1)C(N)=O)C(C)C)[C@@H](C)O)[C@@H](C)O [ACX017] (H-ACDTATCVLGRLSQELHRLQTYPRTNVGSKAF-NH2; disulfide 2-7)
[1]
  activation of the adrenomedullin 2 (AM2) receptor: did not activate the adrenomedullin 2 (AM2) receptor
[2]
  appetite suppression (reduced food intake compared to Control group): suppressed appetite in the Test group for at least about four hours after dosing
